Read-outs that look alike come from different tables or passages of the source.
Columns and labels:
AD38 cells = experiment: AD38 viability normalized to DMSO control; type: cell-based; conditions: 10 μM compound, vs DMSO control
Experimental: (§1) AD38 cells were then re-suspended with 10 mL of treatment medium and counted. Wells of a collagen coated 96-well NUNC microtiter plate were seeded at 50,000/well in 180 μL of treatment medium, and 20 μL of either 10% DMSO (Control) or a 10× solution of test compound in 10% DMSO in treatment media was added for a final compound concentration 1, 3, or 10 μM (1.0% final [DMSO]) and plates were incubated for 6 days at 37° C.

[1] = test system: HBV viral load, AD38 cells; experiment: Activity of test compounds on viral production from AD38 cells (viral load by quantitative PCR of the core sequence in supernatant); type: cell-based, Hepatitis B virus; conditions: 10 μM compound, 6 days at 37° C., vs DMSO control wells; for activity at 10 µM: Hepatitis B virus, 144 h, read-out: AD38 Viral Load (CpAM/DMSO %) at 10 μM
Experimental: as §1
Subsequently viral load production was assayed by quantitative PCR of the core sequence. Briefly, 5 μL of clarified supernatant was added to a PCR reaction mixture that contained forward primers HBV-f 5′-CTGTGCCTTGGGTGGCTTT-3′, Reverse primers HBV-r 5′-[…]-3′ and Fluorescent TaqMan™ Probes HBV-probe 5′-FAM/AGCTCCAAA/ZEN/[…]/3IABkFQ-3′ in Quanta Biosciences PerfeCTa® qPCR Toughmix®, and was subsequently on an Applied Biosystems VIIA7 in a final volume of 20 μL. The PCR mixture was incubated at 45° C. for 5 minutes, then 95° C. for 10 min, followed by 40 cycles of 10 seconds at 95° C. and 20 seconds at 60° C. Viral load was quantitated against known standards by using ViiA™ 7 Software. Viral load in the supernatant from wells with treated cells were compared against viral load in supernatant from DMSO control wells (≥3 per plate).

| SMILES | AD38 Viability Normalized Result (CPAM/DMSO %) at 10 μM (AD38 cells; Table 6) | activity at 10 µM ([1]; Table 6) | AD38 Viability Normalized Result (CPAM/DMSO %) at 10 μM (AD38 cells; Table 9) | activity at 10 µM ([1]; Table 9) | AD38 Viral Load (CpAM/DMSO %) at 10 μM ([1]; Table 9) |
| --- | --- | --- | --- | --- | --- |
| O=S(=O)(c1ccc(C(F)(F)F)cc1)N1CCN(c2nc(Nc3ccc(F)cc3)cc(-n3cnnc3)n2)CC1 [Compound 1315] | 98% | 89% | – | – | – |
| N#Cc1ccc(Nc2cc(C(F)(F)F)nc(N3CCN(S(=O)(=O)c4ccc(OC(F)(F)F)cc4)CC3)n2)cc1 [Compound 1332] | – | – | 85% | 13% | – |
| CCOc1ccc(S(=O)(=O)N2CCN(c3nc(Nc4ccc(C#N)cc4)cc(C(F)(F)F)n3)CC2)cc1 [Compound 1333] | – | – | 85% | 2% | – |
| CCCCOc1ccc(S(=O)(=O)N2CCN(c3nc(Nc4ccc(C#N)cc4)cc(C(F)(F)F)n3)CC2)cc1 [Compound 1334] | – | – | 102% | 2% | – |
| CCOc1ccc(S(=O)(=O)N2CCN(c3nc(C)cc(Nc4ccc(F)cc4)n3)CC2)cc1 [Compound 1336] | – | – | 103% | 59% | – |
| CCCCOc1ccc(S(=O)(=O)N2CCN(c3nc(C)cc(Nc4ccc(F)cc4)n3)CC2)cc1 [Compound 1337] | – | – | 93% | 34% | – |
| Cc1ccc(S(=O)(=O)N2CCN(c3nc(C)cc(Nc4ccc(F)cc4)n3)CC2)cc1 [Compound 1339] | – | – | 93% | 50% | – |
| O=S(=O)(c1ccc(OC(F)(F)F)cc1)N1CCN(c2nc(Nc3ccc(F)cc3)cc(C(F)(F)F)n2)CC1 [Compound 1340] | – | – | 88% | 1% | – |
| CCOc1ccc(S(=O)(=O)N2CCN(c3nc(Nc4ccc(F)cc4)cc(C(F)(F)F)n3)CC2)cc1 [Compound 1341] | – | – | 95% | 1% | – |
| CCCCOc1ccc(S(=O)(=O)N2CCN(c3nc(Nc4ccc(F)cc4)cc(C(F)(F)F)n3)CC2)cc1 [Compound 1342] | – | – | 107% | 17% | – |
| O=S(=O)(c1ccccc1)N1CCN(c2nc(Nc3ccc(F)cc3)cc(C(F)(F)F)n2)CC1 [Compound 1343] | – | – | 31% | 6% | – |
| Cc1ccc(S(=O)(=O)N2CCN(c3nc(Nc4ccc(F)cc4)cc(C(F)(F)F)n3)CC2)cc1 [Compound 1344] | – | – | 0% | 2% | – |
| O=S(=O)(c1ccc(F)cc1)N1CCN(c2nc(Nc3ccc(F)cc3)cc(C(F)(F)F)n2)CC1 [Compound 1345] | – | – | 77% | 14% | – |
| Cc1cc(Nc2ccc(F)cc2)nc(N2CCN(S(=O)(=O)c3ccc(F)cc3)CC2)n1 [Compound 1347] | – | – | 7% | 2% | – |
| COc1ccc(S(=O)(=O)N2CCN(c3nc(C)cc(Nc4ccc(F)cc4)n3)CC2C)cc1 (stereo not drawn) [Compound 1348] | – | – | 102% | 5% | – |
| COc1ccc(S(=O)(=O)N2CCN(c3nc(C)cc(Nc4ccc(C#N)cc4)n3)C(=O)C2)cc1 [Compound 1352] | – | – | 96% | 89% | – |
| CCOc1ccc(S(=O)(=O)N2CCN(c3nc(Nc4ccc(C#N)cc4)cc(-c4nccs4)n3)CC2)cc1 [Compound 1353] | – | – | 107% | 7% | – |
| CCCCOc1ccc(S(=O)(=O)N2CCN(c3nc(Nc4ccc(C#N)cc4)cc(-c4nccs4)n3)CC2)cc1 [Compound 1354] | – | – | 97% | 24% | – |
| N#Cc1ccc(Nc2cc(-c3nccs3)nc(N3CCN(S(=O)(=O)c4ccccc4)CC3)n2)cc1 [Compound 1355] | – | – | 103% | 5% | – |
| Cc1ccc(S(=O)(=O)N2CCN(c3nc(Nc4ccc(C#N)cc4)cc(-c4nccs4)n3)CC2)cc1 [Compound 1356] | – | – | 97% | 6% | – |
| O=S(=O)(c1ccc(OC(F)(F)F)cc1)N1CCN(c2nc(Nc3ccc(F)cc3)cc(-c3nccs3)n2)CC1 [Compound 1357] | – | – | 95% | – | 67% |

| SMILES | AD38 Viability Normalized Result (CPAM/DMSO %) at 10 μM (AD38 cells; Table 6) | activity at 10 µM ([1]; Table 6) | AD38 Viability Normalized Result (CPAM/DMSO %) at 10 μM (AD38 cells; Table 9) | activity at 10 µM ([1]; Table 9) | AD38 Viral Load (CpAM/DMSO %) at 10 μM ([1]; Table 9) |
| --- | --- | --- | --- | --- | --- |
| CCOc1ccc(S(=O)(=O)N2CCN(c3nc(Nc4ccc(F)cc4)cc(-c4nccs4)n3)CC2)cc1 [Compound 1358] | – | – | 99% | 77% | – |
| CCCCOc1ccc(S(=O)(=O)N2CCN(c3nc(Nc4ccc(F)cc4)cc(-c4nccs4)n3)CC2)cc1 [Compound 1359] | – | – | 97% | – | 60% |
| O=S(=O)(c1ccccc1)N1CCN(c2nc(Nc3ccc(F)cc3)cc(-c3nccs3)n2)CC1 [Compound 1360] | – | – | 94% | 28% | – |
| Cc1ccc(S(=O)(=O)N2CCN(c3nc(Nc4ccc(F)cc4)cc(-c4nccs4)n3)CC2)cc1 [Compound 1361] | – | – | 95% | 25% | – |
| O=S(=O)(c1ccc(F)cc1)N1CCN(c2nc(Nc3ccc(F)cc3)cc(-c3nccs3)n2)CC1 [Compound 1362] | – | – | 88% | 54% | – |
| COc1ccc(S(=O)(=O)N2CCN(c3nc(C)cc(Nc4ccc(C#N)cc4)n3)C(C)C2)cc1 (stereo not drawn) [Compound 1363] | – | – | 93% | 1% | – |
| N#Cc1ccc(Nc2cc(-c3nccs3)nc(N3CCN(S(=O)(=O)c4ccc(OC(F)(F)F)cc4)CC3)n2)cc1 [Compound 1364] | – | – | 100% | 62% | – |
| N#Cc1ccc(Nc2cc(-c3nccs3)nc(N3CCN(S(=O)(=O)c4ccc(F)cc4)CC3)n2)cc1 [Compound 1365] | – | – | 98% | 53% | – |
| COc1ccc(S(=O)(=O)N2CCN(c3nc(C)cc(Nc4ccc(C#N)cc4)n3)CC2=O)cc1 [Compound 1366, 4-((2-(4-((4-methoxyphenyl)sulfonyl)-3-oxopiperazin-1-yl)-6-methylpyrimidin-4-yl)amino) benzonitrile] | – | – | 108% | 41% | – |
| O=S(=O)(c1ccc(OC(F)(F)F)cc1)N1CCN(c2nc(Nc3ccc(F)cc3)cc(-c3nccs3)n2)CC1 [Compound 1367] | – | – | 105% | – | 44% |
| CCCCOc1ccc(S(=O)(=O)N2CCN(c3nc(Nc4ccc(F)cc4)cc(-c4nccs4)n3)CC2)cc1 [Compound 1368] | – | – | 94% | – | 147% |
| CCCCOc1ccc(S(=O)(=O)N2CCN(c3nc(Nc4ccc(C#N)cc4)cc(-c4cncs4)n3)CC2)cc1 [Compound 1369] | – | – | 96% | 56% | – |
| COc1ccc(S(=O)(=O)N2CCN(c3nc(C)cc(Nc4ccc(F)cc4)n3)CC2(C)C)cc1 [Compound 1370] | – | – | 114% | 12% | – |
| COc1ccc(S(=O)(=O)N2CCN(c3nc(C)cc(Nc4ccc(F)cc4)n3)C(C)C2)cc1 (stereo not drawn) [Compound 1371] | – | – | 111% | 29% | – |
| N#Cc1ccc(Nc2cc(-c3cncs3)nc(N3CCN(S(=O)(=O)c4ccc(OC(F)(F)F)cc4)CC3)n2)cc1 [Compound 1372] | – | – | 109% | 21% | – |
| CCOc1ccc(S(=O)(=O)N2CCN(c3nc(Nc4ccc(C#N)cc4)cc(-c4cncs4)n3)CC2)cc1 [Compound 1373] | – | – | 109% | 8% | – |
| N#Cc1ccc(Nc2cc(-c3cncs3)nc(N3CCN(S(=O)(=O)c4ccccc4)CC3)n2)cc1 [Compound 1374] | – | – | 107% | 7% | – |
| O=S(=O)(c1ccc(F)cc1)N1CCN(c2nc(Nc3ccc(F)cc3)cc(-c3nccs3)n2)CC1 [Compound 1375] | – | – | 104% | – | 43% |
| COc1ccc(S(=O)(=O)N2CCN(c3nc(C)cc(Nc4ccc(C#N)cc4)n3)CC2(C)C)cc1 [Compound 1376] | – | – | 121% | 20% | – |
| Cc1cc(Nc2ccc(C#N)cc2)nc(N2CCN(S(=O)(=O)c3ccc(OCCN(C)C)cc3)CC2)n1 [Compound 1377, 4-((2-(4-((4-(2-(dimethylamino)ethoxy)phenyl)sulfonyl)piperazin-1-yl)-6-methylpyrimidin-4-yl)amino) benzonitrile] | – | – | 15% | 1% | – |
| Cc1cc(Nc2ccc(F)cc2)nc(N2CCN(S(=O)(=O)c3ccc(OCCN(C)C)cc3)CC2)n1 [Compound 1378, 2-(4-((4-(2-(dimethylamino)ethoxy)phenyl)sulfonyl)piperazin-1-yl)-N-(4-fluorophenyl)-6-methylpyrimidin-4-amine] | – | – | 1% | 13% | – |
